Measured values reported in PMC9878342, “Gossypol acetate: A natural polyphenol derivative with antimicrobial activities against the essential cell division protein FtsZ” (Frontiers in Microbiology, 2023).

Target: T1, FtsZ (SaFtsZ) (Staphylococcus aureus, UniProt P0A031)
T1 construct: 6× His-FtsZ (N-terminal 6× His tag)
T1 sequence (P0A031 1-390): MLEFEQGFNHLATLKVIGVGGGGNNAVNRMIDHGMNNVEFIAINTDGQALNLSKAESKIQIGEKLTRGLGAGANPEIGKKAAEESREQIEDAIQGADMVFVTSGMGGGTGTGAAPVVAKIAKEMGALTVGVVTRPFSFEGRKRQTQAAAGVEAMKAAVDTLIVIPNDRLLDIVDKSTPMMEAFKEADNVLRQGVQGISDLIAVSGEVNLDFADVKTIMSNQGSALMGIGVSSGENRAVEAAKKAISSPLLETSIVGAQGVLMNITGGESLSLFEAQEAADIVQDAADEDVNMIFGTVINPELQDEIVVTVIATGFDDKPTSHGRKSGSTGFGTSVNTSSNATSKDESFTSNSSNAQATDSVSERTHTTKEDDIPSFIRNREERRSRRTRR
Assay: isothermal titration calorimetry; also GTPase inhibition and […]° light scattering
Format: binding

Question: With `Cc1cc2c(C(C)C)c(O)c(O)c(C=O)c2c(O)c1-c1c(C)cc2c(C(C)C)c(O)c(O)c(C=O)c2c1O` [S2303, Gossypol acetate] as the compound, how does the Kd read?
Answer: 3.6 ± 0.7 µM
